Laboratory results published in patent publication US20250163052A1, “cGAS INHIBITORS AND USES THEREOF” (Cornell University, priority 2022, published 2025).

Key:
NFkB-SEAP = assay: THP1-Dual cells transfected with DNA, nfkb expression (Quantiblue); type: cell-based; conditions: Homo sapiens; for inhibition at 10 µM: THP-1, 10 μM; for inhibition at 30 µM: THP-1, 30 μM
How it was run: (§1)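 THP1-Dual cells were treated with compounds at various dilutions for 4 h, then transfected with DNA (2 ug/ml) using lipofectamine and incubated overnight. Supernatant Ifnb reporter was read with Quantiluc and nfkb reporter with Quantiblue; viability was measured by CellTiter-Glo.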

[1] = Metabolic stability in mouse liver microsomes; conditions: for Remaining (NCF = 60 min) / Remaining (T = 60 min): mouse liver microsomes; for Remaining (NCF = 60 min): no co-factor (no NADPH); for Remaining (T = 60 min): 60 min with NADPH; for CLint scaled / half-life / microsomal CLint: mouse, liver microsomes
[2] = Metabolic stability in human liver microsomes; conditions: for Remaining (NCF = 60 min) / Remaining (T = 60 min): human liver microsomes; for Remaining (NCF = 60 min): no co-factor (no NADPH); for Remaining (T = 60 min): 60 min with NADPH
m-cGAS = m-cGAS (Mus musculus, UniProt Q8C6L5); assay: Cell-free mouse cGAS enzyme inhibition assay (ATP depletion, Kinase-Glo Max); type: biochemical; conditions: 1 h; for inhibition at 10 µM: read-out: m-cGAS, conc. 10 μM; for inhibition at 1 µM: read-out: m-cGAS, conc. 1 μM
THP1 cells = assay: THP1-Dual cells, cell viability (CellTiter-Glo); type: cell-based
How it was run: as §1

IFNB = assay: THP1-Dual cells transfected with DNA, Ifnb expression (Quantiluc); type: cell-based; conditions: Homo sapiens; for inhibition at 10 µM: THP-1, 10 μM; for inhibition at 30 µM: THP-1, 30 μM
How it was run: as §1

h-cGAS = h-cGAS (Homo sapiens, UniProt Q8N884); assay: Cell-free human cGAS enzyme inhibition assay (ATP depletion, Kinase-Glo Max); type: biochemical; conditions: 3 h; for inhibition at 1 µM: read-out: h-cGAS, conc. 1 μM; for inhibition at 10 µM: read-out: h-cGAS, conc. 10 μM
[3] = Protein binding in mouse brain homogenates; type: in vitro ADME; conditions: for recovery at 6 h / fraction unbound at 6 hr: brain homogenate; for fraction unbound at 6 hr: read-out: % BoundBrain (converted)

Sequence of h-cGAS (Q8N884 whole entry): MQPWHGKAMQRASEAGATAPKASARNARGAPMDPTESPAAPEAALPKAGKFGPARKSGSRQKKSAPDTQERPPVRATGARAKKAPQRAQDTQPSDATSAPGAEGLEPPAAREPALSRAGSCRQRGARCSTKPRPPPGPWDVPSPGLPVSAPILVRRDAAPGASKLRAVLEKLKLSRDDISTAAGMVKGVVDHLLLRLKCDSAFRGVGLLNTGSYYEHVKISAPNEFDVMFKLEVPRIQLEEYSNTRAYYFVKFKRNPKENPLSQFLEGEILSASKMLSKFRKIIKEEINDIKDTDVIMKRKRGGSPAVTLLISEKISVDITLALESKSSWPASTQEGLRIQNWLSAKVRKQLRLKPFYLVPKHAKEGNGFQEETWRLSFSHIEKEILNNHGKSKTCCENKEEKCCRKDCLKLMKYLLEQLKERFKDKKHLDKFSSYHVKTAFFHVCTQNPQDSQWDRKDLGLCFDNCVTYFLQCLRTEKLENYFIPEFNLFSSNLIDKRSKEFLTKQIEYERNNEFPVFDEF
Sequence of m-cGAS (Q8C6L5 whole entry): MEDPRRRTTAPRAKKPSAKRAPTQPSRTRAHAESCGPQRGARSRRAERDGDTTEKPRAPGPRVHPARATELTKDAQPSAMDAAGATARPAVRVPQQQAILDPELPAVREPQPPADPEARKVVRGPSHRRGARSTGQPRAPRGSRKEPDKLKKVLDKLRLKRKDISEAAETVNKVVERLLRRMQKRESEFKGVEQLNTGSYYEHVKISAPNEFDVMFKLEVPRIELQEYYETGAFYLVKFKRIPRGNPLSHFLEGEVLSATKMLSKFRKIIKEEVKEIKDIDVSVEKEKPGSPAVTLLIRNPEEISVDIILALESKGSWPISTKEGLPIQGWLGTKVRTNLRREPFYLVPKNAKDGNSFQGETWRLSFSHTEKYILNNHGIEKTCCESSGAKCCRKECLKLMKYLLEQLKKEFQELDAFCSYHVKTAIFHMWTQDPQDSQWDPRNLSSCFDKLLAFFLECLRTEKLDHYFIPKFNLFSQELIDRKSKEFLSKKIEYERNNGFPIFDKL

SMILES	inhibition at 10 µM (NFkB-SEAP) [%]	inhibition at 30 µM (NFkB-SEAP) [%]	Remaining (NCF = 60 min) [1] [%]	Remaining (T = 60 min) [1] [%]	CLint scaled [1] [mL/min/kg]	half-life [1] [min]	microsomal CLint [1] [µL/min/mg]	Remaining (NCF = 60 min) [2] [%]	Remaining (T = 60 min) [2] [%]	CLint scaled ([2]; human, liver microsomes) [mL/min/kg]	half-life ([2]; human, liver microsomes) [min]	microsomal CLint ([2]; human, liver microsomes) [µL/min/mg]	inhibition at 10 µM (m-cGAS) [%]	Cell viability 10 μM (THP1 cells)	Cell viability 30 μM (THP1 cells)	inhibition at 10 µM (IFNB) [%]	inhibition at 30 µM (IFNB) [%]	inhibition at 1 µM (h-cGAS) [%]	inhibition at 10 µM (h-cGAS) [%]	LogK [3]	other results
Cn1cc(-c2cc(Cl)c(Cl)c3c2c2c(n3C)CCN(C(=O)CN)C2)cn1 [Compound 11]	< 24	50 to 74	97.7	80.1	< 38	> 145	< 9.6	116.1	88.2	< 8.6	> 145	< 9.6	25 to 49	++ (+, ++, and +++ mean the compound respectively shows 25-49%; 50-74%; or 75-100% viability to cells)	− (Cell viability <24%, in THP1 cells is expressed as “−”)	50 to 74	75 to 100	75 to 100	75 to 100	–	–
Cn1cc(-c2cc(Cl)c(Cl)c3nc4c(n23)CN(C(=O)CO)CC4)cn1 [Compound 99]	–	–	–	–	–	–	–	–	–	–	–	–	0 to 24	–	–	–	–	–	0 to 24	0.64	% Remaining at 6 hr [3]: 99.35%; recovery at 6 h [3]: 90.1%; fraction unbound at 6 hr [3]: 0.19
Cn1cc(-c2cc(Cl)c(Cl)c3sc4c(c23)CCN(C(=O)CN)C4)cn1 [Compound 74]	25 to 49	50 to 74	97.8	84.8	< 38	> 145	< 9.6	89.2	93.6	< 8.6	> 145	< 9.6	75 to 100	+++ (+, ++, and +++ mean the compound respectively shows 25-49%; 50-74%; or 75-100% viability to cells)	− (Cell viability <24%, in THP1 cells is expressed as “−”)	75 to 100	75 to 100	0 to 24	25 to 49	1.12	% Remaining at 6 hr [3]: 98.24%; recovery at 6 h [3]: 92.8%; fraction unbound at 6 hr [3]: 0.0706; inhibition at 1 µM (m-cGAS): 25 to 49%
Cn1cc(-c2cc(Cl)c(Cl)c3sc4c(c23)CN(C(=O)CN)CC4)cn1 [Compound 54]	75 to 100	75 to 100	94.5	82.0	< 38	> 145	< 9.6	129.8	85.4	< 8.6	> 145	< 9.6	50 to 74	++ (+, ++, and +++ mean the compound respectively shows 25-49%; 50-74%; or 75-100% viability to cells)	− (Cell viability <24%, in THP1 cells is expressed as “−”)	75 to 100	75 to 100	50 to 74	75 to 100	–	inhibition at 1 µM (m-cGAS): 0 to 24%
CCCc1nc2c(C)cc(-c3nc4ccccc4n3C)cc2n1Cc1ccc(-c2ccccc2C(=O)O)cc1 [Telmisartan, reference compound]	–	–	–	–	–	–	–	–	–	–	–	–	–	–	–	–	–	–	–	1.72	% Remaining at 6 hr [3]: 103.38%; recovery at 6 h [3]: 99.3%; fraction unbound at 6 hr [3]: 0.0188
O=C(O)Cc1ccccc1Nc1c(Cl)cccc1Cl [Diclofenac, reference compound]	–	–	100.4	33.1	–	38	36.5	114.8	0.0	–	–	–	–	–	–	–	–	–	–	–	CLint(mic) ([2]; human, liver microsomes): 323.6 µL/min/mg; T½ ([2]; human, liver microsomes): 4.3 min
